Publication PMC12467068, “Design, Synthesis, and Computational Insights into PKMYT1 Inhibitors for the Treatment of Breast Cancer” (Biomedicines, 2025)
“Also recorded” adds a separate entry of the source.

Legend:
PKMYT1 = biological target: T1, PKMYT1 (Homo sapiens, UniProt Q99640); test: PKMYT1 enzyme inhibition assay (LanthaScreen Eu kinase binding method); conditions: mean of two separate experiments
T1 sequence (Q99640 1-499): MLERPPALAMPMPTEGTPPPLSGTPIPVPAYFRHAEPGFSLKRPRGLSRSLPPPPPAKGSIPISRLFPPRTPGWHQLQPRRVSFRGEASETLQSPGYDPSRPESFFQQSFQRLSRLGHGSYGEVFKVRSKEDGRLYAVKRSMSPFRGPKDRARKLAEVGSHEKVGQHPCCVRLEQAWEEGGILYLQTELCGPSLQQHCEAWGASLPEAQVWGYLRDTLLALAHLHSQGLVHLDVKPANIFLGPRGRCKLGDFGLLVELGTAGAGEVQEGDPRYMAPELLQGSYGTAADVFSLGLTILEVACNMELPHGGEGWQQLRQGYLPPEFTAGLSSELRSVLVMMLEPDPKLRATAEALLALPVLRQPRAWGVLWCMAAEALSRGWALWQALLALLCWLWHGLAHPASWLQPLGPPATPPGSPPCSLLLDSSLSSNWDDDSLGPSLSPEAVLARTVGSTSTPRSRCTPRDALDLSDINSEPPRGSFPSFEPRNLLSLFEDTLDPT
Method: The PKMYT1 kinase assay was conducted with the LanthaScreen™ Eu kinase binding method, as provided by Thermo Fisher Scientific (Waltham, MA, USA). Initially, compounds were prepared at a concentration of 4 mM in DMSO and subsequently diluted to various concentrations in 1X buffer. […] The plate was then incubated in the dark at 25 °C for 1 h, and fluorescence signals were recorded at 665 nm and 615 nm.

HCC1569 cells [1] = test: Cell proliferation assay (CCK-8), HCC1569; format: cell-based; conditions: CCNE1-amplified breast cancer cells, 5-day incubation, mean ± SD, n = 3
Method: (§1) HCC1569 and OVCAR3 cells (2 × 10^3/well) were seeded in 96-well plates and cultured for 24 h at 37 °C, 5% CO2. Compounds at varying concentrations were added, followed by 5-day incubation. Cell viability was assessed using Cell Counting Kit-8 (CCK-8) with absorbance measurement at 450 nm. HCC1569 (BNCC341698) was purchased from BNCC and OVCAR3 (CL-0178) was purchased from Procell.

OVCAR3 cells [2] = test: Cell proliferation assay (CCK-8), OVCAR3; format: cell-based; conditions: CCNE1-amplified ovarian cancer cells, 5-day incubation, mean ± SD, n = 3
Method: as §1

A549 cells = test: Anti-proliferative activity in low-expressing CCNE1 cells A549; format: cell-based
BEAS-2B cells = test: Anti-proliferative activity in normal lung epithelial cells BEAS-2B; format: cell-based
OVCAR3 cells [3] = test: Cell cloning (colony formation) assay; format: cell-based; conditions: OVCAR3, 14 days of incubation, varying concentrations
Method: OVCAR3 cells (4 × 10^3/well) were seeded into 6-well plates and incubated for 24 h at 37 °C in a 5% CO2 atmosphere. Compound MY-14 was then added at varying concentrations, followed by a 14-day incubation period. Subsequently, cells were fixed with a 4% paraformaldehyde solution and stained using crystal violet solution, after which colonies were quantified using ImageJ 1.54 software.

HCC1569 cells [4] = test: Cell apoptosis assay (Annexin V-FITC/PI flow cytometry); format: cell-based; design: Q1 / Q2 / Q3 / Q4: unit not given here
Method: HCC1569 cells (1 × 10^5/well) were seeded in 6-well plates and cultured for 24 h at 37 °C, 5% CO2. MY-14 at varying concentrations were added, followed by 5-day incubation. Cells were trypsinized and pelleted by centrifugation. Subsequent analysis was performed per the Medilunbio kit protocol: staining was conducted with propidium iodide (PI) and Annexin V-FITC. After 15 min incubation, samples were analyzed by flow cytometry.

HCC1569 cells [5] = test: Cell cycle assay (PI flow cytometry); format: cell-based
Method: HCC1569 cells (1 × 10^5/well) were seeded in 6-well plates and cultured for 24 h at 37 °C under 5% CO2. MY-14 at varying concentrations were added, followed by 5-day incubation. Cells were trypsinized, pelleted by centrifugation, and fixed with 70% ethanol. Subsequent staining was performed with propidium iodide (PI) and RNase A according to the Beyotime kit protocol. After 30 min incubation at 37 °C, samples were analyzed by flow cytometry.

Compound `CCOP(=O)(OCC)c1ccc(Nc2ncc(C(=O)Nc3c(C)ccc(O)c3C)c(N)n2)cc1` [MY-14] has an IC50 (PKMYT1) of 2.6 nM, an IC50 (HCC1569 cells [1]) of 1060 ± 180 nM and an IC50 (HCC1569 cells [1]; Homo sapiens, HCC1569, 120 h) of 1020 nM. For the same compound, the IC50 (OVCAR3 cells [2]) was 800 ± 70 nM, the IC50 (OVCAR3 cells [2]; Homo sapiens, OVCAR-3, 120 h) was 820 nM and the “cytotoxicity (in words)” value (A549 cells; A549, CCNE1-low) was “did not exhibit cytotoxicity; also recorded: reduced cytotoxicity”. The IC50 (A549 cells; Homo sapiens, A549, lung cancer cells, low CCNE1 expression, mean ± SD, n = 3) was over 8000 nM, the “cytotoxicity (in words)” value (BEAS-2B cells; BEAS-2B lung epithelial cells) was “did not exhibit cytotoxicity; also recorded: reduced cytotoxicity” and the IC50 (BEAS-2B cells; Homo sapiens, BEAS-2B, lung epithelial cells, mean ± SD, n = 3) was over 8000 nM. The “colony formation (in words)” value (OVCAR3 cells [3]) was “inhibited colony formation in a dose-dependent manner”, the “apoptosis induction (in words)” value (HCC1569 cells [4]; HCC1569) was “induced apoptosis in a concentration-dependent manner; also recorded: induced apoptosis-mediated cell death” and the Q1 (HCC1569 cells [4]; HCC1569, 0.5 μM) was 4.66. It also gave a Q2 (HCC1569 cells [4]; HCC1569, 0.5 μM) of 0.51, a Q3 (HCC1569 cells [4]; HCC1569, 0.5 μM) of 18.6 and a Q4 (HCC1569 cells [4]; HCC1569, 0.5 μM) of 76.2. For the same compound, the Q1 (HCC1569 cells [4]; HCC1569, 1.0 μM) was 3.91, the Q2 (HCC1569 cells [4]; HCC1569, 1.0 μM) was 0.20 and the Q3 (HCC1569 cells [4]; HCC1569, 1.0 μM) was 21.2. For the same compound, the Q4 (HCC1569 cells [4]; HCC1569, 1.0 μM) was 74.7, the Q1 (HCC1569 cells [4]; HCC1569, 2.0 μM) was 4.24 and the Q2 (HCC1569 cells [4]; HCC1569, 2.0 μM) was 1.07. It also gave a Q3 (HCC1569 cells [4]; HCC1569, 2.0 μM) of 40.4, a Q4 (HCC1569 cells [4]; HCC1569, 2.0 μM) of 54.3 and a Q1 (HCC1569 cells [4]; HCC1569, 4.0 μM) of 4.11. For the same compound, the Q2 (HCC1569 cells [4]; HCC1569, 4.0 μM) was 1.14, the Q3 (HCC1569 cells [4]; HCC1569, 4.0 μM) was 46.3 and the Q4 (HCC1569 cells [4]; HCC1569, 4.0 μM) was 48.5. For the same compound, the maximal apoptotic rate (HCC1569 cells [4]; HCC1569, 5-day incubation) was 47.44%, the “cell-cycle arrest (in words)” value (HCC1569 cells [5]) was “arrested cell-cycle progression at the S-phase; also recorded: G1/S phase cell-cycle arrest” and the “distribution of G2/M-phase cells (in words)” value (HCC1569 cells [5]) was “no significant impact”. For the same compound, the “proportion of G1-phase cells (in words)” value (HCC1569 cells [5]) was “reducing the proportion of G1-phase cells” and the “proportion of S-phase cells (in words)” value (HCC1569 cells [5]) was “concentration-dependent increase in the proportion of S-phase cells”.
